# Measurements: publication PMC3961306, “Comparison of the Cancer Gene Targeting and Biochemical Selectivities of All Targeted Kinase Inhibitors Approved for Clinical Use” (PLoS ONE, 2014)
# What was measured:
# Test in all cases: Kinase profiling in a biochemical assay panel (mobility shift assays and ELISA), %-inhibition at 1 μM; selectivity entropy
# [1] = target: T1, panel of more than 300 wild-type and mutant kinases (313 kinase panel) (Homo sapiens, UniProt O43781)
# T1 sequence (O43781 1-588): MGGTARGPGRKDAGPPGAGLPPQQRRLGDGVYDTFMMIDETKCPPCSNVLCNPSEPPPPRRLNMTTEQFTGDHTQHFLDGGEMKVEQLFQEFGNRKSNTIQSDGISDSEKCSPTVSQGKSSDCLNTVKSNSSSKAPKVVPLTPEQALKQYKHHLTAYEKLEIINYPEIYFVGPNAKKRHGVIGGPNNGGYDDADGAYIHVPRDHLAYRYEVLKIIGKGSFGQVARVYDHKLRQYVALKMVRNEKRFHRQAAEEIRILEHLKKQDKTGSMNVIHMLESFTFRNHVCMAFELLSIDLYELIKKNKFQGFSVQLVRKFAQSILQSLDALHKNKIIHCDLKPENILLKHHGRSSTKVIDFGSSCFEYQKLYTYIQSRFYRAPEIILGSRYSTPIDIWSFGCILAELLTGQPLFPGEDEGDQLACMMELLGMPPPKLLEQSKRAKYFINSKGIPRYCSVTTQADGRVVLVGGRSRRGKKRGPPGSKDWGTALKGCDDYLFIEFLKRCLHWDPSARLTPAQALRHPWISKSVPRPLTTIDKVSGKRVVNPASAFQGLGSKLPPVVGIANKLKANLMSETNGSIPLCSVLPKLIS
# [2] = target: panel of more than 300 wild-type and mutant kinases (313 kinase panel) (Homo sapiens, UniProt P14616)
# [3] = target: panel of more than 300 wild-type and mutant kinases (313 kinase panel) (Homo sapiens, UniProt P53667)
# [4] = target: panel of more than 300 wild-type and mutant kinases (313 kinase panel) (Homo sapiens, UniProt Q9UM73, F1174L)
# [5] = target: panel of more than 300 wild-type and mutant kinases (313 kinase panel) (Homo sapiens, UniProt P49841)
# [6] = target: T2, panel of more than 300 wild-type and mutant kinases (313 kinase panel) (Homo sapiens, UniProt Q16566)
# T2 sequence (Q16566 1-473): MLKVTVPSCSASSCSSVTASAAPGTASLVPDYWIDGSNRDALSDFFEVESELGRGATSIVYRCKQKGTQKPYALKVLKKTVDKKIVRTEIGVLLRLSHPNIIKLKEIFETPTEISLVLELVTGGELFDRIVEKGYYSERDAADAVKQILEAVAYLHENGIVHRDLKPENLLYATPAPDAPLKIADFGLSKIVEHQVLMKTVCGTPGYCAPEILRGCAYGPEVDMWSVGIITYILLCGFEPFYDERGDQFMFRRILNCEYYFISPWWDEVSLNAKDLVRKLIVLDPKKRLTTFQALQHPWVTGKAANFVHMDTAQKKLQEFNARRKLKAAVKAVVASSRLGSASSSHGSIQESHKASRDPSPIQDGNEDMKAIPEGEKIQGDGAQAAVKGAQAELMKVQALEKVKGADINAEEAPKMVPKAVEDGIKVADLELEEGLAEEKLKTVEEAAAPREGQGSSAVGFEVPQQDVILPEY
# [7] = target: T3, panel of more than 300 wild-type and mutant kinases (313 kinase panel) (Homo sapiens, UniProt Q13043)
# T3 sequence (Q13043 1-487): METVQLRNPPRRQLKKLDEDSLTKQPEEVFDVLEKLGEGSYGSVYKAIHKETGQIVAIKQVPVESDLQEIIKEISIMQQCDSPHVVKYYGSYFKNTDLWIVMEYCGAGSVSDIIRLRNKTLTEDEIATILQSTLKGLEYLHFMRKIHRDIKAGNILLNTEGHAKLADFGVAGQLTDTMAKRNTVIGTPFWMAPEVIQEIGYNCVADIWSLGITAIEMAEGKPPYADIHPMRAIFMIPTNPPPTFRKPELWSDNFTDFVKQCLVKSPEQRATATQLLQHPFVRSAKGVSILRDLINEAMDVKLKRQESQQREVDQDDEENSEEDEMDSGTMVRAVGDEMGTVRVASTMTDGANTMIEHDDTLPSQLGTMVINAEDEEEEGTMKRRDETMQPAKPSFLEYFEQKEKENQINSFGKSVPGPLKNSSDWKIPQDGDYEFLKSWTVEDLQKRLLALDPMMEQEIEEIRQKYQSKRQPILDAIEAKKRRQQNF
# [8] = kinase ALK(F1174L), 1 μM compound
Compound,"%-inhibition of DYRK3 ([1]; kinase DYRK3, compound at 1 μM) [%]","%-inhibition of IRR ([2]; kinase IRR, compound at 1 μM) [%]","%-inhibition of LIMK1 ([3]; kinase LIMK1, compound at 1 μM) [%]","%-inhibition, ALK(F1174L) [4, 8] [%]","%-inhibition of GSK3β ([5]; kinase GSK3β, compound at 1 μM) [%]","%-inhibition, CaMK4 ([6]; kinase CaMK4, 1 μM compound) [%]","%-inhibition of MST1 ([7]; kinase MST1, 1 μM) [%]",%-inhibition of IRR ([2]; 1 µM) [%],%-inhibition of LIMK1 ([3]; 1 µM) [%],%-inhibition of GSK3β ([5]; 1 µM) [%],"%-inhibition, CaMK4 ([6]; 1 µM) [%]",%-inhibition of DYRK3 ([1]; 1 µM) [%],%-inhibition of MST1 ([7]; 1 µM) [%],"%-inhibition, ALK(F1174L) ([4]; 1 µM) [%]"
CN(C)C/C=C/C(=O)Nc1cc2c(Nc3ccc(F)c(Cl)c3)ncnc2cc1O[C@H]1CCOC1 [afatinib],29,,,,,,,,,,,,,
COc1cc(Nc2c(C#N)cnc3cc(OCCCN4CCN(C)CC4)c(OC)cc23)c(Cl)cc1Cl [bosutinib],12,57,-7,71,,,,,,,,,,
COc1cc2nccc(Oc3ccc(NC(=O)C4(C(=O)Nc5ccc(F)cc5)CC4)cc3)c2cc1OC [cabozantinib],4,66,51,6.54,-3.51,-10,6,,,,,,,
C[C@@H](Oc1cc(-c2cnn(C3CCNCC3)c2)cnc1N)c1c(Cl)ccc(F)c1Cl [crizotinib],14,,94,,-2.11,,83,,,,,,,
CC(C)(C)c1nc(-c2cccc(NS(=O)(=O)c3c(F)cccc3F)c2F)c(-c2ccnc(N)n2)s1 [dabrafenib],-5.68,10,100,,,78,,,,,,,,
Cc1nc(Nc2ncc(C(=O)Nc3c(C)cccc3Cl)s2)cc(N2CCN(CCO)CC2)n1 [dasatinib],,-16,,,,,,,,,,,,
C#Cc1cccc(Nc2ncnc3cc(OCCOC)c(OCCOC)cc23)c1 [erlotinib],,,,,,,,-12,0.0961,-4.63,2,22,-1.06,41
CO[C@H]1C[C@@H]2CC[C@@H](C)[C@@](O)(O2)C(=O)C(=O)N2CCCC[C@H]2C(=O)O[C@H]([C@H](C)C[C@@H]2CC[C@@H](OCCO)[C@H](OC)C2)CC(=O)[C@H](C)/C=C(\C)[C@@H](O)[C@@H](OC)C(=O)[C@H](C)C[C@H](C)/C=C/C=C/C=C/1C [everolimus],-11,0.808,3.28,-3.68,-6,-11,-1.86,,,,,,,
O=S(=O)(c1cccc2cnccc12)N1CCCNCC1 [fasudil],26,0.15,-7,-4,-8,-5.66,10,,,,,,,
CS(=O)(=O)CCNCc1ccc(-c2ccc3ncnc(Nc4ccc(OCc5cccc(F)c5)c(Cl)c4)c3c2)o1 [lapatinib],-2.24,-4,-2.33,1.61,-10,,,,,,-4.44,,-5.59,
Cc1cn(-c2cc(NC(=O)c3ccc(C)c(Nc4nccc(-c5cccnc5)n4)c3)cc(C(F)(F)F)c2)cn1 [nilotinib],-1.09,,-18,-45,10,3.54,,-0.717,,,,,-21,
Cc1ccc(Nc2nccc(N(C)c3ccc4c(C)n(C)nc4c3)n2)cc1S(N)(=O)=O [pazopanib],-4.54,16,,26,,-1.08,2,,,,,,,
Cc1ccc(C(=O)Nc2ccc(CN3CCN(C)CC3)c(C(F)(F)F)c2)cc1C#Cc1cnc2cccnn12 [ponatinib],50,,68,5,,-1.51,,,,,,,,
CNC(=O)c1cc(Oc2ccc(NC(=O)Nc3ccc(Cl)c(C(F)(F)F)c3)c(F)c2)ccn1 [regorafenib],15,-4,66,-7.49,11,-0.0486,-5.39,,,,,,,
N#CC[C@H](C1CCCC1)n1cc(-c2ncnc3[nH]ccc23)cn1 [ruxolitinib],-9,0.404,60,,10,-2.58,12,,,,,,,
CCN(CC)CCNC(=O)c1c(C)[nH]c(/C=C2\C(=O)Nc3ccc(F)cc32)c1C [sunitinib],,,,,,26,,,,,,,,
COc1cc2c(Nc3ccc(Br)cc3F)ncnc2cc1OCC1CCN(C)CC1 [vandetanib],-5,-3.23,12,,-3.71,-3,3.16,,,,,,,
